Data published in patent US20230167118A1, “DEGRADATION OF BRUTON'S TYROSINE KINASE (BTK) BY CONJUGATION OF BTK INIDBITORS WITH E3 LIGASE LIGAND AND METHODS OF USE” (BEIGENE, LTD., priority 2020, published 2023).

How the values were obtained:
BTK = target: T1, BTK (Homo sapiens, UniProt Q06187); test: Cell Degradation: BTK degradation in TMD-8 cells, HTRF assay; assay type: cell-based; settings: 6 h treatment, IC50 (DC50) of BTK degradation
T1 construct: High control=Cell group with added DMSO and without compound, indicating microplate readings without BTK degradation; endogenous in cells; host or cells: TMD-8 cells
Experimental: TMD-8 cells are treated with compounds in 0.2% DMSO, dilution is done according to the following protocol: (1) make 500× stock solution in DMSO from 1 mM by 6-fold dilution, total 8 doses were included; (2) make 2× solution in cell culture medium by transferring 0.5 μl 500× stock solution into 125 μl medium; (3) 15 μl of 2× solution is added to cells and incubate for 6 h.
After 6 h treatment, add […] 4×lysis buffer to each well; seal the plate and incubate 30 min at room temperature on a plate shaker; Once the cells are lysed, 16 μL of cell lysate are transferred to a PE 384-well HTRF detection plate; 4 μL of pre-mixed HTRF antibodies are added to each well; Cover the plate with a plate sealer, spin 1000 rpm for 1 min, Incubate overnight at room temperature; Read on BMG PheraStar with HTRF protocol (337 nm-665 nm-620 nm).
The inhibition (degradation) percentage of the compound was calculated by the following equation: Inhibition percentage of Compound=100-100× (Signal-low control)/(High control-low control), wherein signal=each test compound group
Dmax is the maximum percentage of inhibition (degradation).
The IC50 (DC50) value of a compound can be obtained by fitting the following equation
Y=Bottom+(TOP-Bottom)/(1+((IC50/X)^hillslope))
(§1) Wherein, X and Y are known values, and IC50, Hillslope, Top and Bottom are the parameters obtained by fitting with software. Y is the inhibition percentage (calculated from the equation), X is the concentration of the compound; IC50 is the concentration of the compound when the 50% inhibition is reached. The smaller the IC50 value is, the stronger the inhibitory ability of the compound is. Vice versa, the higher the IC50 value is, the weaker the ability the inhibitory ability of the compound is; Hillslope represents the slope of the fitted curve, generally around 1 *; Bottom represents the minimum value of the curve obtained by data fitting, which is generally 0%±20%; Top represents the maximum value of the curve obtained by data fitting, which is generally 100%±20%. The experimental data were fitted by calculating and analyzing with Dotmatics data analysis software.

HEK-293 cells = test: HEK-293 Cytotoxicity Assay (CellTiter-Glo); assay type: cell-based; settings: Homo sapiens, HEK293, 72 h incubation, CellTiter-Glo luminescence
Experimental: HEK-293 Cytotoxicity Assay
HEK-293 cells are treated with compounds diluted in 0.2% DMSO, dilution is done according to the following protocol: (1) make 500× stock solution in DMSO from 5 mM by 4-fold dilution, total 8 doses were included; (2) make 2× solution in cell culture medium by transferring 0.5 ul 500× stock solution into 125 ul medium; (3) 50 ul of 2× solution is added to cells and incubate for 72 h.
Add 25 μl of the CellTiter-Glo®Reagent [I (Promega)—Cat No. G7572] to each well in the 96-well plate. Mix contents for 2 minutes on an orbital shaker to induce cell lysis. Allow the plate to incubate at room temperature for 10 minutes to stabilize luminescent signal. Record luminescence on BMG PheraStar with luminescence protocol.
as §1, with “The IC50 value of a compound can be obtained by fitting the following equation. Y=Bottom+(TOP−Bottom)/(1+((IC50/X)^hillslope)) Wherein,” for “Wherein,”, “1*;” for “1 *;”

T1 sequence (Q06187 whole entry): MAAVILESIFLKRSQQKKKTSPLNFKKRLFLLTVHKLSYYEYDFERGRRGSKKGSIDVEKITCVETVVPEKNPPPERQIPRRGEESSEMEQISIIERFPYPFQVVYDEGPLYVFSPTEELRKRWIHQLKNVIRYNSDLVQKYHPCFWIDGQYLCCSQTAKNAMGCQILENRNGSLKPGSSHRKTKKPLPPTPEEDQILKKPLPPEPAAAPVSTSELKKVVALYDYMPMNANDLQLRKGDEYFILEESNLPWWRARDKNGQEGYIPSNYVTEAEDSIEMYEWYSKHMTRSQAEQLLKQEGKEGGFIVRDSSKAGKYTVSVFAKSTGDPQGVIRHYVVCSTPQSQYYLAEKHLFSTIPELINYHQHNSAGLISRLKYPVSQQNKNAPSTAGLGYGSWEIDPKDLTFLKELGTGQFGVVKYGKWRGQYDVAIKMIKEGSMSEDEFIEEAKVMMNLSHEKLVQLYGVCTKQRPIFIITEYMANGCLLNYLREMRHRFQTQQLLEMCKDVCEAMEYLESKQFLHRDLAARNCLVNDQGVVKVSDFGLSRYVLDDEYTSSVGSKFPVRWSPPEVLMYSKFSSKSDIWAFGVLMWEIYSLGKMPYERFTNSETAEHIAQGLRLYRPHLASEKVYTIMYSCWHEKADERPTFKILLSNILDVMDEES

Compound | DC50 (BTK) [nM] | IC50 (HEK-293 cells) [nM]
Cc1cc(-c2ncnc3[nH]c(-c4ccc(C5CCN(CC6CCN(c7ccc(N8CCC(=O)NC8=O)cc7)CC6)CC5)cc4)cc23)ccc1[C@H](C)NC(=O)c1nc(C(C)(C)C)no1 [Example 8, (S)-3-(tert-butyl)-N-(1-(4-(6-(4-(1-((1-(4-(2,4-dioxotetrahydropyrimidin-1(2H)-yl)phenyl)piperidin-4-yl)methyl)piperidin-4-yl)phenyl)-7H-pyrrolo[2,3-d]pyrimidin-4-yl)-2-methylphenyl)ethyl)-1,2,4-oxadiazole-5-carboxamide] | 40.9 | 1960
C[C@@H](NC(=O)c1noc(C(C)(C)C)n1)c1cc(F)c(-c2ncnc3[nH]c(-c4ccc(N5CCN(CC6CCN(c7ccc(N8CCC(=O)NC8=O)cc7)CC6)CC5)cn4)cc23)cc1CO [Example 171, (R)-5-(tert-butyl)-N-(1-(4-(6-(5-(4-((1-(4-(2,4-dioxotetrahydropyrimidin-1(2H)-yl)phenyl)piperidin-4-yl)methyl)piperazin-1-yl)pyridin-2-yl)-7H-pyrrolo[2,3-d]pyrimidin-4-yl)-5-fluoro-2-(hydroxymethyl)phenyl)ethyl)-1,2,4-oxadiazole-3-carboxamide] | 0.25 | > 10000
Cc1cc(-c2ncnc3[nH]c(-c4ccc(N5CCN(CC6CCN(c7ccc(N8CCC(=O)NC8=O)cc7)CC6)CC5)cc4)cc23)c(F)cc1[C@@H](C)NC(=O)c1noc(C(C)(C)C)n1 [Example 107, (R)-5-(tert-butyl)-N-(1-(4-(6-(4-(4-((1-(4-(2,4-dioxotetrahydropyrimidin-1(2H)-yl)phenyl)piperidin-4-yl)methyl)piperazin-1-yl)phenyl)-7H-pyrrolo[2,3-d]pyrimidin-4-yl)-5-fluoro-2-methylphenyl)ethyl)-1 2,4-oxadiazole-3-carboxamide] | 1.7 | > 10000
Cc1cc(-c2ncnc3[nH]c(-c4c(C)nn(C5CN(CC6CCN(c7ccc(N8CCC(=O)NC8=O)cc7)CC6)C5)c4C)cc23)ccc1[C@@H](C)NC(=O)c1nc(C(C)(C)C)no1 [Example 169, (R)-3-(tert-butyl)-N-(1-(4-(6-(1-(1-((1-(4-(2,4-dioxotetrahydropyrimidin-1(2H)-yl)phenyl)piperidin-4-yl)methyl)azetidin-3-yl)-3,5-dimethyl-1H-pyrazol-4-yl)-7H-pyrrolo[2,3-d]pyrimidin-4-yl)-2-methylphenyl)ethyl)-1,2,4-oxadiazole-5-carboxamide] | 0.52 | > 10000
Cc1cc(-c2ncnc3[nH]c(-c4ccc(N5CCN(CC6CCN(c7cccc(N8CCC(=O)NC8=O)c7)CC6)CC5)cn4)cc23)ccc1[C@@H](C)NC(=O)c1nc(C(C)(C)C)no1 [Example 119, (R)-3-(tert-butyl)-N-(1-(4-(6-(5-(4-((1-(3-(2,4-dioxotetrahydropyrimidin-1(2H)-yl)phenyl)piperidin-4-yl)methyl)piperazin-1-yl)pyridin-2-yl)-7H-pyrrolo[2,3-d]pyrimidin-4-yl)-2-methylphenyl)ethyl)-1,2,4-oxadiazole-5-carboxamide] | 1.2 | > 10000
Cc1c([C@@H](C)NC(=O)c2noc(C(C)(C)C)n2)ccc(-c2ncnc3[nH]c(-c4ccc(N5CCN(CC6CCN(c7ccc(N8CCC(=O)NC8=O)cc7)CC6)CC5)cc4)cc23)c1F [Example 115, (R)-5-(tert-butyl)-N-(1-(4-(6-(4-(4-((1-(4-(2,4-dioxotetrahydropyrimidin-1(2H)-yl)phenyl)piperidin-4-yl)methyl)piperazin-1-yl)phenyl)-7H-pyrrolo[2,3-d]pyrimidin-4-yl)-3-fluoro-2-methylphenyl)ethyl)-1,2,4-oxadiazole-3-carboxamide] | 1.83 | > 10000
Cc1cc(N2CCC(CN3CCN(c4ccc(-c5cc6c(-c7ccc([C@@H](C)NC(=O)c8noc(C(C)(C)C)n8)c(C)c7F)ncnc6[nH]5)nc4)CC3)CC2)ccc1N1CCC(=O)NC1=O [Example 128, (R)-5-(tert-butyl)-N-(1-(4-(6-(5-(4-((1-(4-(2,4-dioxotetrahydropyrimidin-1(2H)-yl)-3-methylphenyl)piperidin-4-yl)methyl)piperazin-1-yl)pyridin-2-yl)-7H-pyrrolo[2,3-d]pyrimidin-4-yl)-3-fluoro-2-methylphenyl)ethyl)-1,2,4-oxadiazole-3-carboxamide] | 0.47 | > 10000
Cc1cc(-c2ncnc3[nH]c(-c4ccc(N5CCN(CC6CCN(c7ccc(N8CCC(=O)NC8=O)cc7)CC6)C[C@@H]5C)nc4)cc23)ccc1[C@@H](C)NC(=O)c1nc(C(C)(C)C)no1 [Example 106, 3-(tert-butyl)-N-((R)-1-(4-(6-(6-((S)-4-((1-(4-(2,4-dioxotetrahydropyrimidin-1(2H)-yl)phenyl)piperidin-4-yl)methyl)-2-methylpiperazin-1-yl)pyridin-3-yl)-7H-pyrrolo[2,3-d]pyrimidin-4-yl)-2-methylphenyl)ethyl)-1,2,4-oxadiazole-5-carboxamide] | 4.6 | > 10000
CC(C)(C)c1noc(C(=O)NCc2ccc(-c3ncnc4[nH]c(-c5cnn(C6CCN(CC7CCN(c8ccc(N9CCC(=O)NC9=O)cc8)CC7)CC6)c5)cc34)cc2F)n1 [Example 16, 3-(tert-butyl)-N-(4-(6-(1-(1-((1-(4-(2,4-dioxotetrahydropyrimidin-1(2H)-yl)phenyl)piperidin-4-yl)methyl)piperidin-4-yl)-1H-pyrazol-4-yl)-7H-pyrrolo[2,3-d]pyrimidin-4-yl)-2-fluorobenzyl)-1,2,4-oxadiazole-5-carboxamide] | 0.55 | > 10000
C[C@@H](NC(=O)c1nc(C(C)(C)C)no1)c1ccc(-c2ncnc3[nH]c(-c4ccc(N5CCN(CC6CCN(c7ccc(N8CCC(=O)NC8=O)cc7)CC6)C[C@@H]5C)nc4)cc23)cc1F [Example 80, 3-(tert-butyl)-N-((R)-1-(4-(6-(6-((S)-4-((1-(4-(2,4-dioxotetrahydropyrimidin-1(2H)-yl)phenyl)piperidin-4-yl)methyl)-2-methylpiperazin-1-yl)pyridin-3-yl)-7H-pyrrolo[2,3-d]pyrimidin-4-yl)-2-fluorophenyl)ethyl)-1,2,4-oxadiazole-5-carboxamide] | 4.3 | > 10000
Cc1cc(-c2ncnc3[nH]c(-c4ccc(C5CCN(CC6CCN(c7ccc(N8CCC(=O)NC8=O)cc7)CC6)C5)cc4)cc23)ccc1[C@@H](C)NC(=O)c1nc(C(C)(C)C)no1 (stereo partly drawn) [Example 158, 3-(tert-butyl)-N-((1R)-1-(4-(6-(4-(1-((1-(4-(2,4-dioxotetrahydropyrimidin-1(2H)-yl)phenyl)piperidin-4-yl)methyl)pyrrolidin-3-yl)phenyl)-7H-pyrrolo[2,3-d]pyrimidin-4-yl)-2-methylphenyl)ethyl)-1,2,4-oxadiazole-5-carboxamide] | 1.12 | 4040
Cc1cc(-c2ncnc3[nH]c(-c4c(C)nn(C5CCN(CC6CCN(c7ccc(N8CCC(=O)NC8=O)cc7)CC6)CC5)c4C)cc23)ccc1[C@@H](C)N(C)C(=O)c1nc(C(C)(C)C)no1 [Example 155, (R)-3-(tert-butyl)-N-(1-(4-(6-(1-(1-((1-(4-(2,4-dioxotetrahydropyrimidin-1(2H)-yl)phenyl)piperidin-4-yl)methyl)piperidin-4-yl)-3,5-dimethyl-1H-pyrazol-4-yl)-7H-pyrrolo[2,3-d]pyrimidin-4-yl)-2-methylphenyl)ethyl)-N-methyl-1,2,4-oxadiazole-5-carboxamide] | 13.3 | 
